Data set [1] is described as follows: DPPH radical scavenging test. Conditions: mean ± SEM; for DPPH (% Inhibition): compound at 1 mg/mL, 30 min, 517 nm. On the procedure:
The DPPH assay is widely used, and the simplest and fastest in vitro method for evaluating the antioxidant power of extracts or isolated compounds; it is based on the depletion of the 2,2-diphenyl-1-picrylhydrazyl radical (DPPH˙) by an antioxidant molecule with scavenger activity. This is an extremely sensitive test that can detect the activity of active ingredients present in very low concentrations.
The procedure used was adapted from Wang et al.. Briefly, 0.750 mL of a methanolic solution of each tested compound was treated with 1.5 mL of DPPH solution (0.004%) in MeOH. Samples were stored in the dark at room temperature for 30 min, and the absorbance value was read with a spectrophotometer at 517 nm, which is the maximum peak of absorbance relative to the DPPH radical absorption spectra. The values obtained were fitted into Equation (1) and converted to inhibition percentage (%) of the radical:DPPH inhibition percentage (%) = 100 × [1 − A1/A0](1) where A1 and A0 were, respectively, the absorbance recorded with and without the sample, which are directly proportional to DPPH residual concentration in the sample and DPPH concentration in the control (0.750 of MeOH and 1.5 mL of DPPH solution). […] A linear regression was performed to calculate the sample concentration able to eliminate 50% of DPPH free radicals.
A general note: The DPPH test is a chemical assay of radical scavenging.

Data set [2] in a line: FRAP (Ferric Reducing Antioxidant Power) assay. Conditions: Trolox standard, 37 °C 10 min, 593 nm; mean ± SEM. From the text: The FRAP (Ferric Reducing Antioxidant Power) test allows the measurement of the ability of antioxidants to reduce ferric ion to ferrous. This method represents one of the simplest, quickest and least expensive methods for the determination of reducing properties on oxidized species in vitro.
The FRAP test (Ferric Reducing Antioxidant Power) is based on a colorimetric reaction and evaluates the ability of a sample of reducing ferric ions to ferrous ion while complexed with TPTZ (2,4,6-trispyridil-s-triazine). The FRAP solution was prepared from 0.1 M acetate buffer (pH 3.6), 10 mmol/L of TPTZ in 40 mM HCl, and 20 mM solution of FeCl3, with a 10:1:1 ratio, as described. Then, 1.9 mL of this solution was incubated with 0.1 mL of the sample solution at 37 °C for 10 min. The absorbance was read with a UV-Vis spectrophotometer at a 593 nm wavelength, relative to the maximum peak of absorbance of Fe^2+-TPTZ complex. Trolox® was used as a standard and the results are expressed as µmolTE/g.

Data set [3] is described as follows: UV spectra in solution (MeOH-DMSO): λmax and molar extinction coefficient. Conditions: for ε (molar extinction coefficient): at λmax, Lambert-Beer equation, in M-1 cm-1 (unit assumed); for λmax: solution in MeOH-DMSO, 290–400 nm. Type of data set: physicochemical. How it is done:
We next investigated the protective potential against UV radiation of each compound. Specifically, in vitro tests were conducted to determine the parameters related to absorption in the UV spectrum and those fundamental to the relative evaluation of the filtering potential and thus candidature as possible UV sunscreen ingredients of the candidates under examination, including λ critical and SPF (sun protection factor). Since the SPF is correlated to the UV quantitative absorption of the substances, the wavelength of maximum absorption (λmax) and the molar extinction coefficient (ε) of the derivatives in solution (MeOH-DMSO) were evaluated (Figures S1 and S2, Supplementary Materials). The UV spectra of the compounds BZTidr1–6 and BZTcin1–5 were recorded in the UVA-UVB range (290–400 nm) to evaluate their profile and compare it to that of the PBSA, a commercial UVB filter that has a λmax of 302 nm. After this peak, the absorbance of PBSA drops, reaching almost zero in the 325 nm range, and thus not providing absorption in the UVA region.
Once the λmax of each derivative was established, the molar extinction coefficient ε was calculated by applying the Lambert-Beer equation (Table S1, Supplementary Materials): the higher this value, the greater the ability of the compound under examination to absorb UV radiation. […] The excellent values of BZTidr1, BZTidr2 and BZTidr3 are ascribed to the aforementioned hyperchromic shift. In regard to the BZTcin1–5 series, the molar extinction coefficients calculated were very high, and the best values were those of BZTcin1, BZTcin2 and BZTcin3, also attributable to the hyperchromic shift of the absorption spectra. For both series, the excellent absorption capacity of ultraviolet radiation can be traced back to the high π-type conjugation that characterizes them.

The next data set deals with melanoma Colo-38 cells. The data set is described as follows: Cell growth inhibition assay, Colo-38. The note with it: for IC50: Homo sapiens, 24 h incubation, cell count; for SI Colo-38 (selectivity index): IC50 HaCat / IC50 Colo-38. Type of data set: cell-based, human. How it is done: All synthesized compounds were tested in order to evaluate their in vitro antiproliferative activity. The human melanoma Colo-38 cell line was selected as a tumor skin model, while the immortalized human HaCaT keratinocytes were chosen as a control for the evaluation of the cytotoxicity towards non-cancerous cells and of the selectivity towards tumor cell lines. […] The selectivity index (SI) was also calculated and is the ratio between the IC50 of a given compound towards the non-cancerous cell line and the IC50 of the same compound towards the tumor cell line.
Cell growth inhibition assays were carried out using human melanoma Colo-38 cells and skin HaCat keratinocytes cells. Human melanoma Colo-38 cells were kindly provided by Dr. Patrizio Giacomini (Laboratory of Immunology, Regina Elena Institute, Rome, Italy). HaCat cells were kindly provided by Istituto Zooprofilattico Sperimentale della Lombardia e dell’Emilia Romagna, Brescia, Italy. Cell lines were seeded using concentrations of 40,000 cells/mL and 25,000 cells/mL, respectively. Colo-38 cells were maintained in RPMI 1640, supplemented with 10% fetal bovine serum (FBS), penicillin (100 Units mL^−1), and streptomycin (100 µg mL^−1). HaCat cells were maintained in DMEM, supplemented with 10% fetal bovine serum (FBS), penicillin (100 Units mL^−1), streptomycin (100 µg mL^−1) and glutamine (2 mM); the incubation was performed at 37 °C in a 5% CO2 atmosphere. Tested compounds were dissolved in MeOH/DMSO (1:1) to obtain 50 mM stock solutions and diluted before cell treatment in MeOH 100%. The tested compounds were added at serial dilutions to the cell cultures (from 0.1 to 100 µM) and incubated for 24 h further. Cells were then harvested, suspended in physiological solution, and counted with a Z2 Coulter Counter (Coulter Electronics, Hialeah, FL, USA). The cell number/mL and the IC50 values were determined when untreated cells were in the log phase of cell growth. Cells treated with vehicles and untreated cells were placed in each plate.

These results are taken from publication PMC9822352, “Design, Synthesis and Evaluation of New Multifunctional Benzothiazoles as Photoprotective, Antioxidant and Antiproliferative Agents” (Molecules, 2022).

Values joined by “and” are separate entries in the source; they are usually repeats but may differ in a detail not shown here. Equal entries are not always repeated. Where only a bound is given, the exact number is not on record here.

As to `O=C(/C=C/c1ccc(O)cc1)Nc1nc2ccccc2s1` [BZTcin2, (E)-N-(benzo[d]thiazol-2-yl)-3-(4-hydroxyphenyl)acrylamide], the “DPPH (% Inhibition)” value in data set [1] was found to be 12.37 ± 0.00%. Besides, the FRAP in data set [2] was 43.73 ± 2.83 µmolTE/g. In addition, in data set [3], the “ε (molar extinction coefficient)” value stood at 32240.17 and the λmax stood at 335.6 nm. The same molecule registered an IC50 in the data set with melanoma Colo-38 cells of 35.2 ± 5.52 µM.
On to `O=C(/C=C/c1ccc(O)c(O)c1)Nc1nc2ccccc2s1` [BZTcin4, (E)-N-(benzo[d]thiazol-2-yl)-3-(3,4-dihydroxyphenyl)acrylamide], for which, in data set [1], the “DPPH (% Inhibition)” value was more than 90.00% and the “DPPH IC50” value was determined as 4.86 ± 0.38 µg/mL. The FRAP in data set [2] is 4583.10 µmolTE/g and 4583.10 ± 22.68 µmolTE/g. Also, in data set [3], the “ε (molar extinction coefficient)” value is recorded as 22387.64 and the λmax came out at 347.7 nm. For the same molecule, in the data set with melanoma Colo-38 cells, the IC50 turned out to be 8.31 ± 0.76 µM and the “SI Colo-38 (selectivity index)” value is listed as 4.59.
Turning to `COc1ccc(/C=C/C(=O)Nc2nc3ccccc3s2)cc1O` [BZTcin5, (E)-N-(benzo[d]thiazol-2-yl)-3-(3-hydroxy-4-methoxyphenyl)acrylamide], the “DPPH (% Inhibition)” value in data set [1] amounted to 40.15 ± 0.18%. For the same molecule, the FRAP in data set [2] is 2043.33 ± 12.03 µmolTE/g. Also, in data set [3], the “ε (molar extinction coefficient)” value worked out at 20688.20 and the λmax is 342.0 nm. Also, in the data set with melanoma Colo-38 cells, inhibition was half-maximal at 10 ± 6.12 µM (IC50) and the “SI Colo-38 (selectivity index)” value was 8.33.
As for `O=C(N/N=C/c1ccc(O)cc1)c1nc2ccccc2s1` [BZTidr2, (E)-N′-(4-hydroxybenzylidene)benzo[d]thiazole-2-carbohydrazide], in data set [1], the “DPPH (% Inhibition)” value came out at 54.80 ± 1.63%. The molecule also showed an FRAP in data set [2] of 1160.24 ± 17.34 µmolTE/g. In addition, in data set [3], the “ε (molar extinction coefficient)” value came to 28637.64 and the λmax amounted to 335.3 nm. Also, 92.6 ± 1.68 µM corresponded to half-maximal inhibition with melanoma Colo-38 cells (IC50).

The IC50 is the concentration at which inhibition is half-maximal. Read a low IC50 as inhibition by little substance.
